According to US6420367B1, “Pyrimidine derivatives exhibiting antitumor activity” (Shionogo & Co., Ltd., priority 1998, dated 2002):
≈ marks a conversion by molar mass, not a printed value.

Experiments:
[1] = test system: human colon cancer HT29; assay: In vitro cell growth inhibition test, MTT assay; assay type: cell-based; details: MTT assay 4 days after compound addition
Excerpt: (§1) Test Example 2 In Vitro Cell Growth Inhibition Test Cells and MTT Assay
(§2) Human squamous lung cancer […], human squamous lung cancer Ma44, human lung adenocarcinoma A549, human colon cancer HT29 and human pancreas cancer PANC-1 were used.

[2] = test system: human squamous lung cancer RERF-RC-AI; assay: In vitro cell growth inhibition test, MTT assay; assay type: cell-based; details: MTT assay 4 days after compound addition
Excerpt: as §1, §2

[3] = test system: human lung adenocarcinoma A549; assay: In vitro cell growth inhibition test, MTT assay; assay type: cell-based; details: MTT assay 4 days after compound addition
Excerpt: as §1, §2

[4] = test system: human squamous lung cancer Ma44; assay: In vitro cell growth inhibition test, MTT assay; assay type: cell-based; details: MTT assay 4 days after compound addition
Excerpt: as §1, §2

[5] = test system: DT-R cells (pRRE3-luc-transfected v-ki-ras-transformed NIH3T3 cells); signal derived from Ras oncogene products; assay: Inhibitory effect against cellular signaling derived from Ras oncogene products: luciferase reporter, dissociation of DT-R from DT-C activity (MAC); assay type: cell-based, mouse; details: minimal tested concentration at which luciferase activities of DT-C cells and DT-R cells dissociated
Excerpt: Test Example 1 Inhibitory Effect Against Cellular Signaling Derived From Ras Oncogene Products
1) Establishment of Cell Lines Used in Assay
Based on the reporter plasmid (pGV-P (Toyo Ink, Japan)), in which luciferase gene was ligated to SV40-derived minimal promoter, we constructed a plasmid designated pRRE3-luc by inserting 3 copies of chemically synthesized oligonucleotides (Sequence: CAGGATATGACTCT, derived from mouse NVL-3 (M. A. Reddy et al.(1992)Mol. Endocrinol., 6, 1051)) into upstream of the promoter. v-ki-ras-transformed NIH3T3 cells (DT cells, provided by Dr. Makoto Noda (Kyoto Univ., School of medicine)) were transfected with this plasmid by liposome-mediated transfection and transfected cell lines stably incorporated and maintained each plasmid were obtained. We named pGV-P and pRRE3-transfected cell line as DT-C and DT-R, respectively and used in the assay described below.
2) Preparation of Samples
i) All the cell lines were cultured in Dulbecco's Modified Essential Medium (DMEM: 10% Fetal Calf Serum(FCS: Hyclone, USA)) including […] kanamycin (Meiji Seika, Japan) in humidified incubator under condition of 5% CO2 at 37° C.
ii) DT-C and DT-R cells were seeded at 2500 cells/well into flat-bottom 96 well multiplate (Sumitomo bakelite) and incubated for 24 hours.
iii) Test compounds were prepared as 1 mg/ml DMSO solution.
iv) The solution of test compounds were added to the culture. Tested compounds are used at the concentration from […] to 0.51 ng/ml with by 3-fold dilution.
v) After 24 hours, the culture supernatant was completely aspirated and […] of cell-lysing solution (PGC-50 (Toyo Ink, Japan)) was added before cells were dried up. In order to the cells were lysed completely, multiwell plates were left at room temperature for 10 to 30 min. The plates were wrapped up and stored at −20° C. till the day of measurement.
3) Measurement of Samples
i) Melt the samples by putting 96 well multiplate at 37° C. and add 90 μl/well 25 mM Tris (pH 7.5).
ii) Transfer 50 μl of the sample (110 μl) to the 96 well microplate for measurement (Microlite 1 (Dynatech)).
iii) Measure the samples by the luminometer, LUMINOUS CT9000D (Dia-Yatron, Japan). We used Pickagene luminescence kit PGL2000 or LT2.0 (Toyo Ink, Japan) as substrates for luminescence measurement (50 μl/well).
4) Judgment of the Results
i) The luciferase activity of DT-C cells and DT-R cells were plotted in the graph where the relative activity and the compound concentration were expressed as Y-axis and X-axis, respectively. We judged by the degree of dissociation between the activities of DT-C cells and DT-R cells as an index.
ii) Concretely, efficacy of the compound was expressed by two values described below.
a) Among the points of concentration tested, the minimal concentration (Minimal Active Concentration: MAC), at which the activities of DT-C cells and DT-R cells dissociated, was shown as an index of efficacy of the compound.

[6] = test system: human pancreas cancer PANC-1; assay: In vitro cell growth inhibition test, MTT assay; assay type: cell-based; details: MTT assay 4 days after compound addition
Excerpt: as §1, §2

Row | IC50, HT29 [1] | IC50, RERF-LC-AI [2] | IC50, A549 [3] | IC50, Ma44 [4] | IC50, PANC-1 [6] | SMILES | MAC (Minimal Active Concentration) [5]
1 | 0.15 µg/mL | 0.2 µg/mL | 0.16 µg/mL |  |  | CNC(N)=Nc1nc(C)ncc1CSc1nnc(-c2ccccc2N)o1.Cl.Cl [Compound A-5] | 
2 | 0.008 µg/mL (≈ 0.0208 µM) | 0.01 µg/mL (≈ 0.026 µM) | 0.012 µg/mL (≈ 0.0312 µM) |  |  | CCNC(N)=Nc1nc(C)ncc1CSc1nnc(-c2ccccc2N)o1 [Compound A-8] | 
3 | 0.1 µg/mL (≈ 0.242 µM) | 0.025 µg/mL (≈ 0.0606 µM) | 0.09 µg/mL (≈ 0.218 µM) |  |  | CCCCNC(N)=Nc1nc(C)ncc1CSc1nnc(-c2ccccc2N)o1 [Compound A-9] | 
4 | 0.51 µg/mL (≈ 1.14 µM) | 0.87 µg/mL (≈ 1.95 µM) |  |  |  | Cc1ncc(CSc2nnc(-c3ccccc3N)o2)c(N=C(N)NCc2ccccc2)n1 [Compound A-12] | 
5 |  | 0.0022 µg/mL (≈ 0.00516 µM) |  |  |  | CCNC(N)=Nc1nc(C)ncc1CSc1nnc(-c2ccccc2NC(C)=O)o1 [Compound A-18] | 
6 |  | 0.02 µg/mL (≈ 0.0485 µM) |  |  |  | CNC(N)=Nc1nc(C)ncc1CSc1nnc(-c2ccccc2NC(C)=O)o1 [Compound A-19] | 
7 |  | 0.02 µg/mL (≈ 0.0469 µM) |  |  |  | CCC(=O)Nc1ccccc1-c1nnc(SCc2cnc(C)nc2N=C(N)NC)o1 [Compound A-20] | 
8 |  | 0.02 µg/mL (≈ 0.0522 µM) |  |  |  | CCNC(=Nc1nc(C)ncc1CSc1nnc(-c2ccccc2)o1)NC [Compound A-21] | 
9 |  | 0.02 µg/mL (≈ 0.0454 µM) |  |  |  | CCNC(N)=Nc1nc(C)ncc1CSc1nnc(-c2ccccc2NC(=O)CC)o1 [Compound A-22] | 
10 |  | 0.0078 µg/mL (≈ 0.0172 µM) | 0.041 µg/mL (≈ 0.0902 µM) | 0.025 µg/mL (≈ 0.055 µM) |  | CCNC(=Nc1nc(C)ncc1CSc1nnc(-c2ccccc2NC(=O)CC)o1)NC [Compound A-23] | 0.123 µg/mL
11 |  | 0.0078 µg/mL (≈ 0.0172 µM) | 0.032 µg/mL (≈ 0.0704 µM) | 0.031 µg/mL (≈ 0.0682 µM) |  | CCNC(=Nc1nc(C)ncc1CSc1nnc(-c2ccccc2NC(C)=O)o1)NCC [Compound A-25] | 0.370 µg/mL
12 |  | 0.079 µg/mL (≈ 0.198 µM) | 0.69 µg/mL (≈ 1.73 µM) | 1 µg/mL (≈ 2.5 µM) |  | CCNC(=Nc1nc(C)ncc1CSc1nnc(-c2ccccc2O)o1)NC [Compound A-27] | 
13 | 0.023 µg/mL (≈ 0.0558 µM) | 0.014 µg/mL (≈ 0.0339 µM) |  | 0.034 µg/mL (≈ 0.0824 µM) | 0.028 µg/mL (≈ 0.0679 µM) | CCNC(=Nc1nc(C)ncc1CSc1nnc(-c2ccccc2NC)o1)NC [Compound A-38] | 0.0412 µg/mL
14 | 0.049 µg/mL (≈ 0.115 µM) |  |  | 0.071 µg/mL (≈ 0.166 µM) |  | CCNC(=Nc1nc(C)ncc1CSc1nnc(-c2ccccc2NCC)o1)NC [Compound A-40] | 0.370 µg/mL
15 | 0.072 µg/mL (≈ 0.175 µM) |  |  | 0.065 µg/mL (≈ 0.158 µM) |  | CCNC(=Nc1nc(C)ncc1CSc1nnc(-c2cccc(N)c2)o1)NCC [Compound A-41] | 
16 | 0.32 µg/mL (≈ 0.686 µM) | 0.14 µg/mL (≈ 0.3 µM) |  | 1.8 µg/mL (≈ 3.86 µM) |  | CCNC(=Nc1nc(C(F)(F)F)ncc1CSc1nnc(-c2ccccc2N)o1)NCC [Compound A-46] | 
17 | 0.09 µg/mL (≈ 0.209 µM) | 0.047 µg/mL (≈ 0.109 µM) |  | 0.26 µg/mL (≈ 0.604 µM) |  | CCNC(=Nc1nc(C)ncc1CSc1nnc(-c2cc(F)ccc2N)o1)NCC [Compound A-50] | 
18 |  |  | 0.18 µg/mL (≈ 0.396 µM) | 0.85 µg/mL (≈ 1.87 µM) | 0.085 µg/mL (≈ 0.187 µM) | CCNC(=Nc1nc(C)ncc1CSc1nnc(-c2ccc(NC(C)=O)cc2)o1)NCC [Compound A-56] | 
